Assay results taken from ChEMBL document CHEMBL1201862, “PubChem BioAssay data set” (2004).
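Following 48 hours of exposure in 96-well plates, responses at five concentrations were used to interpolate endpoints linearly. GI50 is the concentration that inhibits growth by half.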 Active and inactive are the calls of the source. Cut-off read from the data, not from the text of the source: active = GI50 up to about 1.1 µM and inactive = higher.

Assays:
Test in all cases: NCI-60 cell line screen, 48 h
HT-29 = system: HT-29
UACC-257 = system: UACC-257
COLO 205 = system: COLO 205
SK-MEL-28 = system: SK-MEL-28
OVCAR-3 = system: OVCAR-3
OVCAR-8 = system: OVCAR-8
A498 = system: A498
NCI-H522 = system: NCI-H522
IGROV-1 = system: IGROV-1
ACHN = system: ACHN
MDA-N = system: MDA-N
OVCAR-5 = system: OVCAR-5
SK-MEL-5 = system: SK-MEL-5
HCC 2998 = system: HCC 2998
MOLT-4 = system: MOLT-4
TK-10 = system: TK-10
SF-295 = system: SF-295
UACC-62 = system: UACC-62
MDA-MB-435 = system: MDA-MB-435
PC-3 = system: PC-3

Structure (SMILES): COc1cc2cc(C(=O)N3CC(COS(C)(=O)=O)c4ccc(O)cc43)[nH]c2c(OC)c1OC (centres undefined)
- GI50 (HT-29): < 0.0001 µM (active)
- GI50 (UACC-257): 0.000537 µM (active)
- GI50 (COLO 205): 0.000432 µM (active)
- GI50 (SK-MEL-28): < 0.0001 µM (active)
- GI50 (OVCAR-3): < 0.0001 µM (active)
- GI50 (OVCAR-8): < 0.0001 µM (active)
- GI50 (A498): < 0.01 µM (active)
- GI50 (NCI-H522): < 0.0001 µM (active)
- GI50 (IGROV-1): 0.000158 µM (active)
- GI50 (ACHN): < 0.0001 µM (active)
- GI50 (MDA-N): < 0.01 µM (active)
- GI50 (OVCAR-5): 0.000536 µM (active)
- GI50 (SK-MEL-5): < 0.0001 µM (active)
- GI50 (HCC 2998): < 0.0001 µM (active)
- GI50 (MOLT-4): < 0.0001 µM (active)
- GI50 (TK-10): 0.000301 µM (active)
- GI50 (SF-295): < 0.0001 µM (active)
- GI50 (UACC-62): < 0.0001 µM (active)
- GI50 (MDA-MB-435): < 0.0001 µM (active)

Structure (SMILES): CNCc1cc(OC)ccc1-c1ccc(OC)c(OC)c1OC
- GI50 (HT-29): 82.6 µM (inactive)
- GI50 (UACC-257): > 100 µM (inactive)
- GI50 (COLO 205): > 100 µM (inactive)
- GI50 (SK-MEL-28): > 100 µM (inactive)
- GI50 (OVCAR-3): > 70 µM (inactive)
- GI50 (OVCAR-8): > 100 µM (inactive)
- GI50 (A498): > 100 µM (inactive)
- GI50 (NCI-H522): > 100 µM (inactive)
- GI50 (IGROV-1): > 100 µM (inactive)
- GI50 (ACHN): > 100 µM (inactive)
- GI50 (OVCAR-5): > 100 µM (inactive)
- GI50 (SK-MEL-5): 64.3 µM (inactive)
- GI50 (HCC 2998): > 88.7 µM (inactive)
- GI50 (MOLT-4): 99.3 µM (inactive)
- GI50 (TK-10): > 100 µM (inactive)
- GI50 (SF-295): 75 µM (inactive)
- GI50 (UACC-62): > 100 µM (inactive)

Structure (SMILES): S=C1CC(c2ccc(Cl)cc2)Sc2ccccc2N1 (centres undefined)
- GI50 (HT-29): > 100 µM (inactive)
- GI50 (UACC-257): > 100 µM (inactive)
- GI50 (COLO 205): 71.9 µM (inactive)
- GI50 (SK-MEL-28): 25.2 µM (inactive)
- GI50 (OVCAR-3): 23.1 µM (inactive)
- GI50 (OVCAR-8): > 100 µM (inactive)
- GI50 (NCI-H522): 21.6 µM (inactive)
- GI50 (IGROV-1): 43.4 µM (inactive)
- GI50 (ACHN): 71.8 µM (inactive)
- GI50 (PC-3): 24.2 µM (inactive)
- GI50 (MDA-N): > 100 µM (inactive)
- GI50 (OVCAR-5): > 100 µM (inactive)
- GI50 (SK-MEL-5): 25.3 µM (inactive)
- GI50 (MOLT-4): > 10 µM (inactive)
- GI50 (TK-10): 46.7 µM (inactive)
- GI50 (SF-295): > 100 µM (inactive)
- GI50 (UACC-62): 31.6 µM (inactive)
- GI50 (MDA-MB-435): 87.1 µM (inactive)

Structure (SMILES): CCOC(=O)CON=c1c2ccccc2ccc2ccccc12
- GI50 (HT-29): > 100 µM (inactive)
- GI50 (UACC-257): > 100 µM (inactive)
- GI50 (COLO 205): > 100 µM (inactive)
- GI50 (SK-MEL-28): > 100 µM (inactive)
- GI50 (OVCAR-3): > 100 µM (inactive)
- GI50 (OVCAR-8): > 100 µM (inactive)
- GI50 (IGROV-1): > 100 µM (inactive)
- GI50 (ACHN): > 100 µM (inactive)
- GI50 (PC-3): > 100 µM (inactive)
- GI50 (MDA-N): > 100 µM (inactive)
- GI50 (OVCAR-5): > 100 µM (inactive)
- GI50 (SK-MEL-5): > 100 µM (inactive)
- GI50 (HCC 2998): 26.1 µM (inactive)
- GI50 (MOLT-4): > 100 µM (inactive)
- GI50 (TK-10): > 100 µM (inactive)
- GI50 (SF-295): > 100 µM (inactive)
- GI50 (UACC-62): > 100 µM (inactive)
- GI50 (MDA-MB-435): > 100 µM (inactive)

Structure (SMILES): N[C@H](COCc1ccccc1)c1ccccc1
- GI50 (HT-29): 28.8 µM (inactive)
- GI50 (UACC-257): 28.1 µM (inactive)
- GI50 (COLO 205): 14.9 µM (inactive)
- GI50 (SK-MEL-28): 59.8 µM (inactive)
- GI50 (OVCAR-3): 26.7 µM (inactive)
- GI50 (OVCAR-8): 35.6 µM (inactive)
- GI50 (A498): 32.4 µM (inactive)
- GI50 (NCI-H522): 16.5 µM (inactive)
- GI50 (IGROV-1): 39 µM (inactive)
- GI50 (ACHN): 31.5 µM (inactive)
- GI50 (OVCAR-5): 24.9 µM (inactive)
- GI50 (SK-MEL-5): 20.1 µM (inactive)
- GI50 (HCC 2998): 29.9 µM (inactive)
- GI50 (MOLT-4): 16.7 µM (inactive)
- GI50 (TK-10): 32.1 µM (inactive)
- GI50 (SF-295): 30.5 µM (inactive)
- GI50 (UACC-62): 32.1 µM (inactive)

Structure (SMILES): CCS(CC)(CC)CC1CCCC2=CCC(P(=O)(c3ccccc3)c3ccccc3)CC21 (centres undefined)
- GI50 (HT-29): 9.12 µM (inactive)
- GI50 (UACC-257): > 10 µM (inactive)
- GI50 (COLO 205): 17 µM (inactive)
- GI50 (SK-MEL-28): 14.4 µM (inactive)
- GI50 (OVCAR-3): 13.7 µM (inactive)
- GI50 (OVCAR-8): 11.4 µM (inactive)
- GI50 (A498): 13.6 µM (inactive)
- GI50 (NCI-H522): 11 µM (inactive)
- GI50 (IGROV-1): 9.57 µM (inactive)
- GI50 (ACHN): 9.02 µM (inactive)
- GI50 (OVCAR-5): 15.6 µM (inactive)
- GI50 (SK-MEL-5): 13.2 µM (inactive)
- GI50 (HCC 2998): 9.25 µM (inactive)
- GI50 (MOLT-4): 4.43 µM (inactive)
- GI50 (TK-10): 12.7 µM (inactive)
- GI50 (SF-295): 3.81 µM (inactive)
- GI50 (UACC-62): 3.01 µM (inactive)

Structure (SMILES): NC(=O)C(=CN1CC(=O)NC1=S)C(N)=O
- GI50 (HT-29): > 100 µM (inactive)
- GI50 (UACC-257): > 100 µM (inactive)
- GI50 (COLO 205): > 100 µM (inactive)
- GI50 (SK-MEL-28): > 100 µM (inactive)
- GI50 (OVCAR-3): > 100 µM (inactive)
- GI50 (OVCAR-8): > 100 µM (inactive)
- GI50 (A498): > 100 µM (inactive)
- GI50 (IGROV-1): > 100 µM (inactive)
- GI50 (ACHN): > 100 µM (inactive)
- GI50 (MDA-N): > 100 µM (inactive)
- GI50 (OVCAR-5): > 100 µM (inactive)
- GI50 (SK-MEL-5): > 100 µM (inactive)
- GI50 (HCC 2998): > 100 µM (inactive)
- GI50 (MOLT-4): > 100 µM (inactive)
- GI50 (TK-10): > 100 µM (inactive)
- GI50 (SF-295): > 100 µM (inactive)
- GI50 (UACC-62): > 100 µM (inactive)
- GI50 (MDA-MB-435): > 100 µM (inactive)
